Measurements from publication PMC7866984, “Molecular Structure, In Vitro Anticancer Study and Molecular Docking of New Phosphate Derivatives of Betulin” (Molecules, 2021).
Read-outs that look alike come from different tables or passages of the source.

How the values were obtained:
[1] = RP-TLC experimental lipophilicity; type: physicochemical; details: for RM0 / logPTLC: RP-TLC; for RM0: acetone/Tris buffer pH 7.4, extrapolated to zero acetone; for -b: slope of regression plot RM = RM0 + bC; for logPTLC: from RM0 by calibration equation
From the text: Lipophilicity is an important physicochemical parameter related to the biological activity of compounds. This descriptor, contained in Lipiński’s rule of five, concerns the transport of a compound through the biological membrane system and the formation of a compound–receptor complex. To assess the lipophilic nature of triterpenoids 3–5, 6a–6e, and 7a–7e, the reverse phase chromatography (RP-TLC) method was used (chromatographic procedure by RP-TLC is included in the Supplementary Materials). The theoretical characteristics of the chromatographic parameters (RM0, log PTLC) of the tested derivatives were also performed. […]
Chromatographic procedure by RP-TLC
The experimental lipophilicity parameters was determined using reversed-phase thin-layer chromatography (RP-TLC). The stationary phase was an aluminium backed silica gel RP-18 F254 S plates (Merck, Darmstadt, Germany). Chloroform solutions of reference compounds […]
(acetanilide, 4-bromoacetophenone, benzophenone, anthracene, DDT) and triterpenes 3-5, 6a-6e and 7a-7e were spotted on to the plates in the amount of 2 µL. The chromatograms were performed in triplicate for each compound. The chromatographic chambers were filled of mobile phases consisting of a mixture of acetone (POCh, Gliwice, Poland) and aqueous solution of buffer Tris [(tris-hydroxymethyl)aminomethane] (Fluka, Loughborough, 0.2 M, pH 7.4). The percent acetone volume was varied within the range of 90-60%, in 5% increments. The spots of compounds were visualized by spraying the plates with 10% ethanolic solution of sulphuric acid (VI) and heating for 3 min at 110°C [60]]. The RM values were calculated by the equation RM = log (1/Rf-1) on the basis of average Rf values. The RM0 parameters were obtained by extrapolating on the acetone content to zero, according to the equation RM = RM0 + bC (C – the percentage concentration of acetone in the mobile phase, b – the slope of the regression plot).
The experimental lipophilicity as log PTLC for triterpenes 3-5, 6a-6e and 7a-7e was calculated […]
obtained on the correlation between the literature log Plit values and the experimental RM0 values […]
Table S5. The theoretical values of lipophilicity for tested compounds 3-5, 6a-6e and 7a- […]
Table S6. The correlation matrix for theoretically obtained lipophilicity parameters of compounds 3-5, 6a-6e and 7a-7e. […]

[2] = tested on: BAX/BCL-2 mRNA in SNB-19 and C-32 cells; experiment: qRT-PCR BAX/BCL-2 ratio; type: cell-based, human; details: 24 h, half of IC50
Procedure: (§1) In our work, we assessed the influence of the tested compounds on the expression of selected genes related to apoptosis. […] We examined their influence on the transcriptional activity of genes encoding a proliferation marker (histone H3), a cell cycle regulator (p53), and proteins related to the mitochondrial apoptosis pathway (BCL-2 and BAX). The study was performed after 24-h exposure of the cultured cells to the test compounds (half of IC50).
(§2) The influence of tested compounds on the transcriptional activity of cells of the genes H3, TP53, BCL-2, and BAX was investigated. Assays were performed by real-time qRT-PCR on an Opticon TM DNA Engine (MJ Research, USA) using the QuantTect® SYBR® Green qRT-PCR Kit (Qiagen, Valencia, […]). Cells were exposed to compound 7a and 7b for 24 h at a concentration equal to half of IC50 for appropriate cell line. For the reference compound, cisplatin, concentrations were 0.8 µg/mL (SNB-19 line) and 0.6 µg/mL (C-32 line). RNA extraction was performed on spin columns using the Quick RNATM MiniPrep kit (Zymo Research, Irvine, CA, USA). RNA extracts were assessed qualitatively and quantitatively. Total RNA integrity was checked electrophoretically on a 1.2% agarose gel with ethidium bromide. The amount and purity of total RNA in the extracts were determined spectrophotometrically with the HP8452A spectrophotometer (Hewlett Packard, Waldbronn, Germany).

[3] = tested on: TP53 mRNA in SNB-19 and C-32 cells; experiment: qRT-PCR expression of TP53; type: cell-based, human; details: 24 h, half of IC50
Procedure: as §1, §2

[4] = tested on: breast cancer T47D cells; experiment: WST-1 cell viability assay, T47D; type: cell-based, human; details: Homo sapiens, T47D, 72 h, read-out: IC50 ± SD, T47D
Procedure: (§3) Evaluation of the effect of new betulin derivatives on the viability of the cultured cells was performed using the WST-1(water soluble tetrazolium salt) assay. Betulin 1 and cisplatin were used as the reference compounds.
(§4) The synthesized compounds and references were tested for cytotoxic activity in vitro against human cancer cell lines such as amelanotic melanoma (C-32, ATCC, Rockville, MD, USA), glioblastoma (SNB-19, DSMZ, Braunschweig, Germany), and breast cancer (T47D, and MDA-MB-231, ATCC, Rockville, MD, USA). Cell cultures were maintained using DMEM (Lonza, Basel, Switzerland) supplemented with 10% fetal bovine serum (FBS) (Biological Industries Cromwell, CT, USA) and penicillin (10,000 U/mL) –streptomycin (10 mg/mL) mix (Lonza, Basel, Switzerland).
(§5) Cultures were performed in 96-well plates (Nunc Thermo Fisher Scientific, Waltham, MA, USA). Cells were seeded at 5 × 10^4/well and incubated for 24 h (at 37 °C, 5% CO2, constant humidity). Then, the medium was replaced with a fresh one with the addition of test compounds in the concentration: 25; 12.5; 6.25; 3.12; 1.56; 0.78; 0.39; 0 µg/mL and incubated again for a further 72 h. After this time, the WST-1 test (Roche Molecular Biochemicals, Mannheim, Germany) was performed to assess the metabolic activity of the cells. The principle of the WST-1 colorimetric test is based on the ability of live cells to decompose bright red tetrazole salts of WST-1 to dark red formazan. The reaction is mediated by mitochondrial dehydrogenases and correlates with the number of cells and their metabolic activity. The absorbance was measured at λ = 450 nm with a UVM340 microplate reader (Biogenet, Józefów, Poland). Results were expressed as a mean value of at least three independent experiments performed in triplicate.

[5] = tested on: amelanotic melanoma (C-32) cells; experiment: WST-1 cell viability assay, C-32; type: cell-based, human; details: WST-1, 72 h, read-out: IC50 ± SD, C-32
Procedure: as §3, §4, §5

[6] = tested on: glioblastoma (SNB-19) cells; experiment: WST-1 cell viability assay, SNB-19; type: cell-based, human; details: WST-1, 72 h, read-out: IC50 ± SD, SNB-19
Procedure: as §3, §4, §5

[7] = tested on: breast cancer MDA-MB-231 cells; experiment: WST-1 cell viability assay, MDA-MB-231; type: cell-based, human; details: Homo sapiens, MDA-MB-231, 72 h, read-out: IC50 ± SD, MDA-MB-231
Procedure: as §3, §4, §5

[8] = tested on: histone H3 mRNA in SNB-19 and C-32 cells; experiment: qRT-PCR expression of H3; type: cell-based, human; details: 24 h, half of IC50
Procedure: as §1, §2

[9] = tested on: amelanotic melanoma (C-32) cells; details: cited from earlier work
[10] = tested on: glioblastoma (SNB-19) cells; details: cited from earlier work
[11] = tested on: breast cancer T47D cells; details: cited from earlier work

| SMILES | RM0 [1] | -b [1] | mRNA copy number BAX to BCL-2 ratio [2] | number of mRNA copies of TP53 [3] | IC50 [4] [µM] | melting point [°C] | IC50 ([5]; Homo sapiens, C32, 72 h) [µM] | IC50 [5] [µM] | IC50 ([6]; Homo sapiens, SNB-19, 72 h) [µM] | IC50 [6] [µM] | IC50 [7] [µM] | number of mRNA copies of histone H3 gene vs control [8] | logPTLC [1] | IC50 [9] [µM] | IC50 [10] [µM] | IC50 [11] [µM] |
| --- | --- | --- | --- | --- | --- | --- | --- | --- | --- | --- | --- | --- | --- | --- | --- | --- |
| C=C(COP(=O)(OCC)OCC)[C@@H]1CC[C@]2(COC(=O)C#CC)CC[C@]3(C)C(CCC4[C@@]5(C)CC[C@H](O)C(C)(C)C5CC[C@]43C)C12 (stereo partly drawn) [Compound 7b, 28-(2-Butynoyl)-30-diethoxyphosphoryloxybetulin] | 5.431 | 0.063 | increased the mRNA copy number to BAX and BCL-2 ratio | increase the number of mRNA copies of TP53 | 15.4 ± 0.51 | 133 to 136 | 0.76 | 0.8 ± 0.03 | 0.8 | 0.76 ± 0.14 | 4.93 ± 0.44 | reduced the number of mRNA copies of the histone H3 gene | – | – | – | – |
| C=C(COP(=O)(OCC)OCC)[C@@H]1CC[C@]2(COC(=O)C#CC3CC3)CC[C@]3(C)C(CCC4[C@@]5(C)CC[C@H](OC(=O)C#CC6CC6)C(C)(C)C5CC[C@]43C)C12 (stereo partly drawn) [Compound 6c, 3,28-Di(2-cyclopropylpropynoyl)-30-diethoxyphosphoryloxybetulin] | 6.419 | 0.071 | – | – | > 50 | 67 to 70 | > 50 | – | > 50 | – | > 50 | – | 8.330 | – | – | – |
| C#CC(=O)OC[C@]12CC[C@@H](C(=C)COP(=O)(OCC)OCC)C1C1CCC3[C@@]4(C)CC[C@H](O)C(C)(C)C4CC[C@@]3(C)[C@]1(C)CC2 (stereo partly drawn) [Compound 7a, 30-Diethoxyphosphoryloxy-28-propynoylbetulin] | 5.318 | 0.062 | increased the mRNA copy number to BAX and BCL-2 ratio | increase the number of mRNA copies of TP53 | 2.61 ± 0.42 | 177 to 180 | 2.15 ± 0.22 | – | 0.91 ± 0.09 | – | 6.2 ± 0.22 | reduced the number of mRNA copies of the histone H3 gene | 6.937 | – | – | – |
| C#CC(=O)OC[C@]12CC[C@@H](C(=C)C)[C@@H]1[C@H]1CC[C@@H]3[C@@]4(C)CC[C@H](O)C(C)(C)[C@@H]4CC[C@@]3(C)[C@]1(C)CC2 [28-O-propynoylbetulin] | – | – | – | – | – | – | – | – | – | – | – | – | – | 16.7 | 4.2 | 111 |
| C=C(COP(=O)(OCC)OCC)[C@@H]1CC[C@]2(COC(C)=O)CC[C@]3(C)C(CCC4[C@@]5(C)CC[C@H](OC(C)=O)C(C)(C)C5CC[C@]43C)C12 (stereo partly drawn) [Compound 4, 3,28-Diacetoxy-30-diethoxyphosphoryloxybetulin] | 5.740 | 0.064 | – | – | 1.3 ± 0.13 | 61 to 63 | 33.9 ± 1.59 | – | 5.01 ± 0.78 | – | 14.5 ± 1.37 | – | 7.470 | – | – | – |
| C=C(COP(=O)(OCC)OCC)C1CCC2(CO)CCC3(C)C(CCC4C5(C)CCC(O)C(C)(C)C5CCC43C)C12 (stereo not drawn) [Compound 5, 30-Diethoxyphosphoryloxybetulin] | 3.719 | 0.046 | – | – | 1.04 ± 0.14 | 194 to 195 | 43.5 ± 2.5 | – | 10.9 ± 1.33 | – | 0.4 ± 0.02 | – | 4.914 | – | – | – |
| C=C(COP(=O)(OCC)OCC)[C@@H]1CC[C@]2(COC(=O)C#Cc3ccccc3)CC[C@]3(C)C(CCC4[C@@]5(C)CC[C@H](O)C(C)(C)C5CC[C@]43C)C12 (stereo partly drawn) [Compound 7d, 30-Diethoxyphosphoryloxy-28-(2-phenylpropynoyl)betulin] | 6.145 | 0.070 | – | – | 9.47 ± 0.03 | 131 to 134 | 6.9 ± 0.4 | – | 4.38 ± 0.04 | – | > 50 | – | 7.982 | – | – | – |
| C=C(COP(=O)(OCC)OCC)[C@@H]1CC[C@]2(COC(=O)C#Cc3ccccc3)CC[C@]3(C)C(CCC4[C@@]5(C)CC[C@H](OC(=O)C#Cc6ccccc6)C(C)(C)C5CC[C@]43C)C12 (stereo partly drawn) [Compound 6d, 30-Diethoxyphosphoryloxy-3,28-di(2-phenylpropynoyl)betulin] | 7.877 | 0.086 | – | – | > 50 | 89 to 91 | 31.5 ± 1.56 | – | 11.2 ± 0.28 | – | > 50 | – | 10.174 | – | – | – |
